Measured values from patent US20260184708A1, “PYRIDAZINONES AND METHODS OF USE THEREOF” (GFB (ABC), LLC, priority 2017, published 2026).
Where two headings read alike, the source gives them in different places.

Target: T1, TRPC5 (Homo sapiens, UniProt Q9UL62)
T1 construct: expressed in transfected cells; host or cells: HEK 293
T1 sequence (Q9UL62 1-973): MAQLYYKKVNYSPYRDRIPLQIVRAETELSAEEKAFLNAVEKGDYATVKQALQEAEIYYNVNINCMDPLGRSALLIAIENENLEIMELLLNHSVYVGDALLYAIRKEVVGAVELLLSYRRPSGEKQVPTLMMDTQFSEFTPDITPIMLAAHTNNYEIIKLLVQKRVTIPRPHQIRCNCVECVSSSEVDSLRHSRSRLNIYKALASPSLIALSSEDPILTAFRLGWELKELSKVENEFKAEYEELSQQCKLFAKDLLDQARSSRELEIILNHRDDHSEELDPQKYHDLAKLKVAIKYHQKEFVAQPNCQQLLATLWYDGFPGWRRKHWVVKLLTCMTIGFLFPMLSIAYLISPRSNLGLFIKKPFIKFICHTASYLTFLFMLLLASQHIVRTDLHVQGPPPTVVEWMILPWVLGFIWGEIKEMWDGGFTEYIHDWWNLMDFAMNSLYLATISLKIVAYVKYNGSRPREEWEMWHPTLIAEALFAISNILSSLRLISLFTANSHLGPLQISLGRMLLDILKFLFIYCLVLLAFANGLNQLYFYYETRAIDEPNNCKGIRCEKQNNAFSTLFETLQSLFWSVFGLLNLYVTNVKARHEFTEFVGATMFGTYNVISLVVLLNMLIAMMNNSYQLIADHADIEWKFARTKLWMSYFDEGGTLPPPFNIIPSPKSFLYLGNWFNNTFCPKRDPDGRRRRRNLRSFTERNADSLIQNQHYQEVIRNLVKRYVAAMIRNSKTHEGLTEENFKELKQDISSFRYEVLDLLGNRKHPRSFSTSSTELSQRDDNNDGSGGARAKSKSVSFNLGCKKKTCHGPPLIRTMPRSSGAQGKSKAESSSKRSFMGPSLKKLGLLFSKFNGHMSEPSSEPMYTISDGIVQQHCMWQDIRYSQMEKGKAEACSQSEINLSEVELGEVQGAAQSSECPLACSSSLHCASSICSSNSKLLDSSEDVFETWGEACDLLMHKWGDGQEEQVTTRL
Assay: TRPC5 automated patch clamp assay (Qpatch), current block after rosiglitazone stimulation
Type: cell-based
Details: HEK293 cells overexpressing TRPC5
Description: HEK 293 cells expressing human TRPC5 were harvested, re-suspended in serum free medium, and added to the automated platform and used within 2-3 hours. Internal and external physiological solutions were freshly prepared prior to the assay. The external solution contained: 145 mM NaCl, 4 mM KCl, 2 mM CaCl2), 1 mM MgCl2, 10 mM HEPES, 10 mM glucose, pH 7.4 with NaOH and 300 mOsm/L. The internal solution contained 120 mM L-aspartic acid, 120 mM CsOH·H2O, 20 mM CsCl, 2 mM MgCl2, 8.8 mM CaCl2), 10 mM EGTA, 10 mM HEPES, 10 mM Glucose, 0.1 mM GTP and 2 mM Na2ATP; pH 7.2 with CsOH and 290 mOsm/L. The free internal Ca2+ concentration was buffered to 1 μM.
The automated electrophysiological platform QPatch 16 from Sophion (Denmark) was used to carry out the compounds profiling. The series resistance and quality of seals were continuously monitored during the experiments. Data was analyzed using Sophion QPatch assay software 5.6 (Odense). IC50 values were calculated using a least squares regression algorithm (Hill equation).
To monitor the ion currents, a voltage ramp from −100 mV to +100 mV, over 300 ms, was applied every 10 seconds, from a holding potential of −60 mV.
After recording for a minimum of 60 seconds control period, Rosiglitazone (30 uM), was applied to activate the channel.

[1] = Table 3, rosiglitazone stimulation, 80 mV, read-out: TRPC5_QP_ XC50_80
[2] = Table 3, rosiglitazone stimulation, 100 mV, read-out: TRPC5_QP_ XC50_100
[3] = Table 4, rosiglitazone stimulation, 80 mV, read-out: TRPC5_QP_ XC50_80
[4] = Table 4, rosiglitazone stimulation, 100 mV, read-out: TRPC5_QP_ XC50_100
[5] = Table 5, rosiglitazone stimulation, 80 mV, read-out: TRPC5_QP_ XC50_80
[6] = Table 5, rosiglitazone stimulation, 100 mV, read-out: TRPC5_QP_ XC50_100
[7] = rosiglitazone stimulation, 80 mV, read-out: TRPC5_QP XC50_80
[8] = rosiglitazone stimulation, 100 mV, read-out: TRPC5_QP XC50_100

## Cc1ccccc1CN1CCN(c2cn[nH]c(=O)c2CCC(C)C)CC1=O [drawing 695]
[1]
  IC50: 10 to 500 µM
[2]
  IC50: 10 to 500 µM

## O=C1CN(c2cn[nH]c(=O)c2Cl)CCN1Cc1ccc(F)cc1OC(F)(F)F
[3]
  IC50: 1 to 5 µM
[4]
  IC50: 1 to 5 µM

## Cc1n[nH]c(=O)c(N2CCN(Cc3ccccc3C(F)(F)F)C(=O)C2)c1Cl
[5]
  IC50: 5 to 10 µM
[6]
  IC50: 5 to 10 µM

## O=C1CN(c2c(Cl)c(Br)n[nH]c2=O)CCN1Cc1ccccc1OC(F)(F)F
[3]
  IC50: 10 to 500 µM
[4]
  IC50: 10 to 500 µM

## Cc1cc(F)ccc1CN1CCN(c2cn[nH]c(=O)c2Cl)CC1 [drawing 679]
[1]
  IC50: 1 to 5 µM
[2]
  IC50: 1 to 5 µM

## O=c1[nH]ncc(N2CCc3ncn(Cc4ccccc4)c3C2)c1Cl
[5]
  IC50: 10 to 500 µM
[6]
  IC50: 10 to 500 µM

## CCc1cn[nH]c(=O)c1N1CCN(Cc2ccc(F)cc2C)CC1
[5]
  IC50: 1 to 5 µM
[6]
  IC50: 1 to 5 µM

## Cc1ccccc1CN1CC2CC(C1)N2c1cn[nH]c(=O)c1Br
[7]
  IC50: 10 to 500 µM
[8]
  IC50: 10 to 500 µM

## Cc1ccccc1CN1CCC2(C1)CN(c1cn[nH]c(=O)c1Br)C2
[1]
  IC50: 10 to 500 µM
[2]
  IC50: 10 to 500 µM

## O=c1[nH]ncc(N2CCN(Cc3ccc(F)cc3F)CC2)c1Cl
[1]
  IC50: 5 to 10 µM
[2]
  IC50: 5 to 10 µM

## C=Cc1c(N2CCN(Cc3ccccc3C)C(=O)C2)cn[nH]c1=O
[3]
  IC50: 1 to 5 µM
[4]
  IC50: 1 to 5 µM

## O=C1N(Cc2ccccc2C(F)(F)F)CCC12CCN(c1cn[nH]c(=O)c1Br)CC2
[5]
  IC50: 10 to 500 µM
[6]
  IC50: 10 to 500 µM

## O=C1CN(c2cn[nH]c(=O)c2Cl)CCN1Cc1cccc(-c2ccccc2)c1
[3]
  IC50: 10 to 500 µM
[4]
  IC50: 10 to 500 µM

## Cc1ccccc1CN1CCN(c2cn[nH]c(=O)c2Br)CC1C (stereo not shown) [drawing 649]
[1]
  IC50: 10 to 500 µM
[2]
  IC50: 10 to 500 µM

## Cc1ccncc1CN1CCN(c2cn[nH]c(=O)c2Cl)CC1
[3]
  IC50: 5 to 10 µM
[4]
  IC50: 5 to 10 µM

## C[C@@H]1CN(CC(=O)N(C)C)CCN1c1cn[nH]c(=O)c1Cl
[3]
  IC50: 10 to 500 µM
[4]
  IC50: 10 to 500 µM

## Cc1cc(F)ccc1CN1CCN(c2c(Br)n[nH]c(=O)c2Cl)CC1
[5]
  IC50: 10 to 500 µM
[6]
  IC50: 10 to 500 µM

## O=c1[nH]ncc(N2CCc3c(ncn3Cc3ccccc3)C2)c1Cl [drawing 831]
[5]
  IC50: 1 to 5 µM
[6]
  IC50: 1 to 5 µM

## O=C1CN(c2cn[nH]c(=O)c2Br)CCN1Cc1ccc(F)cc1F
[1]
  IC50: 1 to 5 µM
[2]
  IC50: 1 to 5 µM

## Cc1ccccc1CN1CCN(c2c(Br)cn[nH]c2=O)CC1
[7]
  IC50: 1 to 5 µM
[8]
  IC50: 1 to 5 µM

## Cc1ccccc1CN1CCN(c2cn[nH]c(=O)c2-c2ccccn2)CC1=O
[1]
  IC50: 10 to 500 µM
[2]
  IC50: 10 to 500 µM

## O=c1[nH]ncc(N2CCN(Cc3ccccc3OC(F)(F)F)CC2)c1Cl
[1]
  IC50: 1 to 5 µM
[2]
  IC50: 1 to 5 µM

## Cc1ccccc1CN1CCN(c2cn[nH]c(=O)c2Oc2ccccc2)CC1=O
[3]
  IC50: 10 to 500 µM
[4]
  IC50: 10 to 500 µM

## O=c1[nH]ncc(N2CCN(Cc3ccccc3Cl)CC2)c1Cl [drawing 676]
[1]
  IC50: 1 to 5 µM
[2]
  IC50: 1 to 5 µM

## Cc1ccccc1CN1CCN(c2cn[nH]c(=O)c2C)CC1=O
[1]
  IC50: 5 to 10 µM
[2]
  IC50: 5 to 10 µM

## CCn1nc(CN2CCN(c3cn[nH]c(=O)c3Cl)CC2)c2ccccc21
[5]
  IC50: 10 to 500 µM
[6]
  IC50: 10 to 500 µM

## O=C1CN(c2cn[nH]c(=O)c2Br)CCN1CC1CCCCC1
[1]
  IC50: 1 to 5 µM
[2]
  IC50: 1 to 5 µM

## CN1CCN(c2cn[nH]c(=O)c2Br)CC1
[7]
  IC50: 10 to 500 µM
[8]
  IC50: 10 to 500 µM

## Cn1ncc2c(CN3CCN(c4cn[nH]c(=O)c4Cl)CC3=O)cccc21
[3]
  IC50: 1 to 5 µM
[4]
  IC50: 1 to 5 µM

## Cc1cc(N2CCN(Cc3ccc(F)cc3C)C(=O)C2)c(=O)[nH]n1
[5]
  IC50: 10 to 500 µM
[6]
  IC50: 10 to 500 µM

## COc1ccc(CN2CCN(c3cn[nH]c(=O)c3Cl)CC2=O)cc1
[5]
  IC50: 5 to 10 µM
[6]
  IC50: 5 to 10 µM

## O=C1CN(c2c(Cl)cn[nH]c2=O)CCN1Cc1cccc(OC(F)(F)F)c1
[5]
  IC50: 10 to 500 µM
[6]
  IC50: 10 to 500 µM

## O=c1[nH]ncc(N2CCN(Cc3ccc(F)cc3Cl)CC2)c1Cl
[1]
  IC50: 1 to 5 µM
[2]
  IC50: 5 to 10 µM

## O=C1N(Cc2ccccc2C(F)(F)F)CCC12CCN(c1cn[nH]c(=O)c1Cl)CC2
[5]
  IC50: 10 to 500 µM
[6]
  IC50: 10 to 500 µM

## O=c1[nH]ncc(Cl)c1N1CCN(Cc2ccccc2OC(F)(F)F)CC1
[3]
  IC50: 5 to 10 µM
[4]
  IC50: 5 to 10 µM

## O=C1CN(c2cn[nH]c(=O)c2Cl)CCN1Cc1ccc(Oc2ccccc2)cc1
[3]
  IC50: 10 to 500 µM
[4]
  IC50: 10 to 500 µM

## O=c1[nH]ncc(N2CCN(Cc3ccccc3)CC2)c1Br
[7]
  IC50: 5 to 10 µM
[8]
  IC50: 5 to 10 µM

## Cc1cc(F)ccc1CN1CCN(c2c(Cl)c(-c3ccccc3)n[nH]c2=O)CC1
[5]
  IC50: 10 to 500 µM
[6]
  IC50: 10 to 500 µM

## CS(=O)(=O)c1ccccc1CN1CCN(c2cn[nH]c(=O)c2Cl)CC1
[5]
  IC50: 5 to 10 µM
[6]
  IC50: 5 to 10 µM

## Cc1cccc(C)c1CN1CCN(c2cn[nH]c(=O)c2Br)CC1
[7]
  IC50: 1 to 5 µM
[8]
  IC50: 1 to 5 µM

## O=c1[nH]ncc(N2CCN(CC3CCCCC3)CC2)c1Br
[7]
  IC50: 1 to 5 µM
[8]
  IC50: 1 to 5 µM

## O=c1[nH]ncc(N2CCN(Cc3ccc(F)cc3C(F)(F)F)CC2)c1Cl
[5]
  IC50: 1 to 5 µM
[6]
  IC50: 1 to 5 µM

## Cc1n[nH]c(=O)c(N2CCN(Cc3ccccc3OC(F)(F)F)C(=O)C2)c1Cl
[5]
  IC50: 5 to 10 µM
[6]
  IC50: 5 to 10 µM

## O=c1[nH]ncc(N2CCOC(Cc3ccccc3)C2)c1Cl (stereo not shown)
[3]
  IC50: 10 to 500 µM
[4]
  IC50: 10 to 500 µM

## Cc1ccccc1CN1CCN(c2cn[nH]c(=O)c2Cl)C(C)C1 (stereo not shown)
[3]
  IC50: 1 to 5 µM
[4]
  IC50: 1 to 5 µM

## Cc1ccccc1N1CCN(c2cn[nH]c(=O)c2Cl)CC1
[5]
  IC50: 1 to 5 µM
[6]
  IC50: 1 to 5 µM

## Cc1ccccc1CN1CC2(CCN(c3cn[nH]c(=O)c3Cl)CC2)C1
[5]
  IC50: 1 to 5 µM
[6]
  IC50: 1 to 5 µM

## Cc1cc(F)ccc1CN1CCN(c2c(Cl)c(Br)n[nH]c2=O)CC1
[5]
  IC50: 10 to 500 µM
[6]
  IC50: 10 to 500 µM

## O=c1[nH]ncc(N2CCc3c(ncn3-c3cccnc3C(F)(F)F)C2)c1Cl
Table 6, read-out: TRPC5-QPatch IC50
  IC50: 1 to 5 µM
